From patent US20230414599A1, “NICOTINAMIDE, NICOTINAMIDE PRECURSORS AND NICOTINAMIDE METABOLITES AND COMPOSITIONS THEREOF FOR REDUCING THE TIME TO RESOLUTION OF SYMPTOMS IN PATIENTS WITH COVID-19 AND OTHER VIRAL INFECTIONS” (CONARIS RESEARCH INSTITUTE AG, priority 2020, published 2023)

Tested on: COVID-19
Assay: COVit-1 trial expanded to 56 patients (nicotinamide vs silica)
Assay type: in vivo
Conditions: for Absolute Risk difference of being symptom-free, 95% Confidence Level: nicotinamide vs silica; for Relative Risk of being symptom-free: silica = REF
[1] = baseline, before supplementation, n = 28
[2] = reduction at week 2 vs baseline, generalized linear mixed model
[3] = week 2, 1,000 mg/day immediate-release, n = 28

Structure (SMILES): NC(=O)c1cccnc1 [Nicotinamide, nicotinamide]
- Chest pain, patients with symptom [1]: 25.0%
- Cough with sputum, patients with symptom [1]: 25.0%
- Cough, patients with symptom [1]: 71.4%
- Diarrhoea, patients with symptom [1]: 28.6%
- Fatigue, patients with symptom [1]: 82.1%
- Fever, patients with symptom [1]: 50.0%
- Head cold (rhinorrhoea), patients with symptom [1]: 78.6%
- Headache, patients with symptom [1]: 78.6%
- Impaired sense of smell, patients with symptom [1]: 60.7%
- Impaired sense of taste, patients with symptom [1]: 64.3%
- Joint pain, patients with symptom [1]: 35.7%
- Loss of appetite, patients with symptom [1]: 42.9%
- Muscle pain, patients with symptom [1]: 50.0%
- Other (individually reported) symptoms, patients with symptom [1]: 28.6%
- Reduced physical performance, patients with symptom [1]: 82.1%
- Shortness of breath, patients with symptom [1]: 28.6%
- Sore throat, patients with symptom [1]: 35.7%
- Vomiting, patients with symptom [1]: 3.6%
- Loss of appetite, OR estimate nicotinamide vs. silica (reduction at week 2 vs baseline, footnote: OR very high): >>^‡
- Vomiting, OR estimate nicotinamide vs. silica (reduction at week 2 vs baseline, footnote: OR very high (unstable due to the small sample)): >>^‡‡
- Chest pain, OR estimate nicotinamide vs. silica [2]: 12.7
- Cough with sputum, OR estimate nicotinamide vs. silica [2]: 4.64
- Cough, OR estimate nicotinamide vs. silica [2]: 1.01
- Diarrhoea, OR estimate nicotinamide vs. silica [2]: 0.84
- Fatigue, OR estimate nicotinamide vs. silica [2]: 2.72
- Fever, OR estimate nicotinamide vs. silica [2]: 1.40
- Head cold (rhinorrhoea), OR estimate nicotinamide vs. silica [2]: 1.41
- Headache, OR estimate nicotinamide vs. silica [2]: 1.27
- Impaired sense of smell, OR estimate nicotinamide vs. silica [2]: 2.05
- Impaired sense of taste, OR estimate nicotinamide vs. silica [2]: 1.24
- Joint pain, OR estimate nicotinamide vs. silica [2]: 2.74
- Muscle pain, OR estimate nicotinamide vs. silica [2]: 1.09
- Other (individually reported) symptoms, OR estimate nicotinamide vs. silica [2]: 1.07
- Reduced physical performance, OR estimate nicotinamide vs. silica [2]: 1.19
- Shortness of breath, OR estimate nicotinamide vs. silica [2]: 1.45
- Sore throat, OR estimate nicotinamide vs. silica [2]: 9.25
- Chest pain, patients with symptom [3]: 3.9%
- Cough with sputum, patients with symptom [3]: 3.9%
- Cough, patients with symptom [3]: 19.2%
- Diarrhoea, patients with symptom [3]: 7.7%
- Fatigue, patients with symptom [3]: 30.8%
- Fever, patients with symptom [3]: 3.9%
- Head cold (rhinorrhoea), patients with symptom [3]: 19.2%
- Headache, patients with symptom [3]: 19.2%
- Impaired sense of smell, patients with symptom [3]: 23.1%
- Impaired sense of taste, patients with symptom [3]: 23.1%
- Joint pain, patients with symptom [3]: 3.9%
- Loss of appetite, patients with symptom [3]: 0.0%
- Muscle pain, patients with symptom [3]: 3.9%
- Other (individually reported) symptoms, patients with symptom [3]: 15.4%
- Reduced physical performance, patients with symptom [3]: 34.6%
- Shortness of breath, patients with symptom [3]: 26.9%
- Sore throat, patients with symptom [3]: 3.9%
- Vomiting, patients with symptom [3]: 0.0%
- Symptom-free, % (week 2, all COVID-19 patients, n = 28, intention to treat): 35.7%
- Absolute Risk difference of being symptom-free, 95% Confidence Level (week 2, all patients): 21.4 (−0.6; 43.4) %
- Relative Risk of being symptom-free (week 2, all patients): 2.50
- Symptom-free, % (week 2, female patients, n = 17): 47.1%
- Absolute Risk difference of being symptom-free, 95% Confidence Level (week 2, female patients): 35.9 (8.1-63.8) ^ %
- Relative Risk of being symptom-free (week 2, female patients): 4.24
- Symptom-free, % (week 2, male patients, n = 11): 18.2%
- Absolute Risk difference of being symptom-free, 95% Confidence Level (week 2, male patients): 1.8 (−35.5; 31.9) %
- Relative Risk of being symptom-free (week 2, male patients): 0.91
- Time from diagnosis to symptom-free, median (week 2 analysis, all patients): 11.0 days
- Time from diagnosis to symptom-free, median (week 2 analysis, female patients): 10.5 days
- Time from diagnosis to symptom-free, median (week 2 analysis, male patients): 13.0 days
- Symptom-free, % (week 4, all COVID-19 patients, n = 28, intention to treat): 39.3%
- Absolute Risk difference of being symptom-free, 95% Confidence Level (week 4, all patients): −3.57 (−22.2; 29.3) %
- Relative Risk of being symptom-free (week 4, all patients): 0.92
- Symptom-free, % (week 4, female patients, n = 17): 52.9%
- Absolute Risk difference of being symptom-free, 95% Confidence Level (week 4, female patients): 2.94 (−30.2; 36.1) %
- Relative Risk of being symptom-free (week 4, female patients): 1.06
- Symptom-free, % (week 4, male patients, n = 11): 18.2%
- Absolute Risk difference of being symptom-free, 95% Confidence Level (week 4, male patients): −0.12 (−48.2; 24.6) %
- Relative Risk of being symptom-free (week 4, male patients): 0.61
- Median time to resolution of symptoms compared to silica (week 4, n = 28 per group): approximately half as long
- Time from diagnosis to symptom-free, median (week 4 analysis, all patients): 13.0 days
- Time from diagnosis to symptom-free, median (week 4 analysis, female patients): 13.0 days
- Time from diagnosis to symptom-free, median (week 4 analysis, male patients): 16.5 days
